Measurements as given in US4923986A, “Derivatives of physiologically active substance K-252” (Kyowa Hakko Kogyo Co., Ltd., priority 1988, dated 1990).
≈ marks a conversion by molar mass, not a printed value.

Legend:
[1] = molecular target: C-kinase (protein kinase C); experiment: C-Kinase inhibitory activity test; format: biochemical; conditions: enzyme activity inhibited 50%
COLO320DM cells = experiment: COLO320DM cell growth inhibition test; format: cell-based; conditions: Homo sapiens, COLO 320DM; COLO320DM cells, cells counted with a microcell counter; read-out: cell growth inhibitory activity IC50, COLO320DM
Description: (§1) After incubation at 37° C. overnight in CO2 -incubator, 0.05 ml each of a test sample appropriately diluted with the culture medium is added to each well. In the case of contact for 72 hours, the cells are further cultured in CO2 -incubator, and then the culture supernatant is removed and the wells are washed once with PBS(-). Thereafter, 0.1 ml of fresh medium is added to each well, followed by culturing at 37° C. for 72 hours in CO2 -incubator. After the culture supernatant is removed, 0.1 ml of the culture medium containing 0.02% Neutral Red is added to each well, followed by culturing at 37° C. for one hour in CO2 -incubator, whereby the cells are stained. Then, the culture supernatant is removed and the cells are washed once with physiological saline. The pigment is extracted with 0.001N HCl/30% ethanol and absorption is measured at 550 nm with a microplate reader.
(4) COLO320DM cell growth inhibition test:
Thereafter, the test is carried out in the same manner as in (1) except that the cells are counted with a microcell counter.

HeLaS3 cells = experiment: HeLaS3 cell growth inhibition test; format: cell-based; conditions: Homo sapiens, HeLa S3; HeLaS3 cells, contact for 72 hours; read-out: cell growth inhibitory activity IC50, HeLaS3
Description: (§2) Compound (I) was examined for C-kinase inhibitory activity and cell growth inhibitory activity by the following method.
as §1, with “MCF 7 cells (4.5×10^4 cells/ml) prepared in RPMI 1640 medium containing 10% fetal calf serum, 10 μg/ml insulin and 10^-8 M estradiol are put into wells of a 96-well microtiter plate in the amount of 0.1 ml per each well. After incubation” for “After incubation”, “microplate reader. By comparing the absorption of intact cells with those of the cells treated with a test compound in known concentrations, the concentration of the test compound at which growth of the cells is inhibited 50% is calculated as IC50.” for “microplate reader.”
(3) HeLaS3 cell growth inhibition test:
HeLaS3 cells (3×10^4 cells/ml) prepared in MEM medium containing 10% fetal calf serum and 2 mM glutamine are put into wells of a 96-well microtiter plate in the amount of 0.1 ml per each well.
Thereafter, the test is carried out in the same manner as in (1).

MCF 7 cells = experiment: MCF 7 cell growth inhibition test; format: cell-based; conditions: Homo sapiens, MCF7; MCF-7 cells, contact for 72 hours; read-out: cell growth inhibitory activity IC50, MCF-7
Description: as §2
(1) MCF 7 cell growth inhibition test:
as §1, with “MCF 7 cells (4.5×10^4 cells/ml) prepared in RPMI 1640 medium containing 10% fetal calf serum, 10 μg/ml insulin and 10^-8 M estradiol are put into wells of a 96-well microtiter plate in the amount of 0.1 ml per each well. After incubation” for “After incubation”, “microplate reader. By comparing the absorption of intact cells with those of the cells treated with a test compound in known concentrations, the concentration of the test compound at which growth of the cells is inhibited 50% is calculated as IC50.” for “microplate reader.”

Row | SMILES | C-Kinase inhibitory activity IC50 [1] [µg/mL] | IC50 (COLO320DM cells) [µg/mL] | IC50 (HeLaS3 cells) [µg/mL] | IC50 (MCF 7 cells) [µg/mL]
1 | CC1=NCC2(CC3OC2(C)n2c4ccccc4c4c5c(c6c7ccccc7n3c6c42)C(=O)NC5)O1 (stereo not drawn) [Compound 56] | 0.006 | 1 (≈ 2.16 µM) | 0.07 (≈ 0.151 µM) | 0.4 (≈ 0.865 µM)
2 | CN(C)C=NC[C@@]1(O)C[C@H]2O[C@]1(C)n1c3ccccc3c3c4c(c5c6ccccc6n2c5c31)C(=O)NC4 (relative stereo) [Compound 33] | – | 1 (≈ 2.03 µM) | 0.08 (≈ 0.162 µM) | 0.26 (≈ 0.527 µM)
3 | CC12OC(CC1(O)C=NNC(=N)N)n1c3ccccc3c3c4c(c5c6ccccc6n2c5c31)CNC4=O (stereo not drawn) [Compound 52] | 0.021 | > 1 | 0.46 (≈ 0.932 µM) | 0.4 (≈ 0.81 µM)
4 | CC12OC(CC1(O)CO)n1c3ccccc3c3c4c(c5c6ccccc6n2c5c31)C(=O)NC4=O (stereo not drawn) [Compound 67] | 0.016 | 0.18 (≈ 0.397 µM) | 0.95 (≈ 2.1 µM) | –
5 | COC(=O)[C@@]1(O)C[C@H]2O[C@]1(C)n1c3ccc(N)cc3c3c4c(c5c6cc(N)ccc6n2c5c31)C(=O)NC4 (relative stereo) [Compound 10] | 0.02 | 0.1 (≈ 0.201 µM) | 0.07 (≈ 0.141 µM) | 0.95 (≈ 1.91 µM)
6 | COC(=O)[C@@]1(O)C[C@H]2O[C@]1(C)n1c3ccc(O)cc3c3c4c(c5c6cc(O)ccc6n2c5c31)C(=O)NC4 (relative stereo) [Compound 16] | 0.005 | – | 0.44 (≈ 0.881 µM) | 0.84 (≈ 1.68 µM)
7 | C[C@]12O[C@H](C[C@]1(O)CO)n1c3ccc(Br)cc3c3c4c(c5c6ccccc6n2c5c31)CNC4=O (relative stereo) [Compound 24] | – | 0.06 (≈ 0.116 µM) | 0.06 (≈ 0.116 µM) | 0.19 (≈ 0.367 µM)
8 | CC12OC(CC1(O)C(=O)NO)n1c3ccccc3c3c4c(c5c6ccccc6n2c5c31)C(=O)NC4=O (stereo not drawn) [Compound 76] | – | 0.06 (≈ 0.124 µM) | 0.4 (≈ 0.829 µM) | 0.62 (≈ 1.29 µM)
9 | CN1CC2(CC3OC2(C)n2c4ccccc4c4c5c(c6c7ccccc7n3c6c42)C(=O)NC5=O)OC1=O (stereo not drawn) [Compound 75] | – | 0.18 (≈ 0.365 µM) | 0.27 (≈ 0.548 µM) | –
10 | C[C@]12O[C@H](C[C@]1(O)CNCC(=O)O)n1c3ccccc3c3c4c(c5c6ccccc6n2c5c31)CNC4=O (relative stereo) [Compound 32] | 0.01 | > 1 | 0.22 (≈ 0.443 µM) | 0.74 (≈ 1.49 µM)
11 | CC12OC(CC1(O)CN1CCOCC1)n1c3ccccc3c3c4c(c5c6ccccc6n2c5c31)CNC4=O (stereo not drawn) [Compound 38] | 0.10 | 0.3 (≈ 0.59 µM) | 0.18 (≈ 0.354 µM) | –
12 | C[C@]12O[C@H](C[C@]1(O)C=NNC1=NCCN1)n1c3ccccc3c3c4c(c5c6ccccc6n2c5c31)CNC4=O [Compound 51] | 0.031 | 1 (≈ 1.92 µM) | 0.23 (≈ 0.443 µM) | 0.5 (≈ 0.962 µM)
13 | CC12OC(CC1(O)CNC(=O)C1CCCN1)n1c3ccccc3c3c4c(c5c6ccccc6n2c5c31)CNC4=O (stereo not drawn) [Compound 35] | – | 0.26 (≈ 0.485 µM) | 0.05 (≈ 0.0934 µM) | 0.27 (≈ 0.504 µM)
14 | CC12OC(CC1(O)CNCC(O)CO)n1c3ccccc3c3c4c(c5c6ccccc6n2c5c31)CNC4=O (stereo not drawn) [Compound 43] | 0.02 | > 1 | 0.19 (≈ 0.371 µM) | 0.52 (≈ 1.01 µM)
15 | Cc1ccc2c(c1)c1c3c(c4c5ccccc5n5c4c1n2[C@H]1C[C@](O)(CO)[C@]5(C)O1)CNC3=O (relative stereo) [Compound 26] | – | 0.03 (≈ 0.0662 µM) | 0.03 (≈ 0.0662 µM) | 0.26 (≈ 0.573 µM)
16 | CN1CC2(CC3OC2(C)n2c4ccccc4c4c5c(c6c7ccccc7n3c6c42)C(=O)NC5)OC1=O (stereo not drawn) [Compound 59] | 0.046 | 0.39 (≈ 0.815 µM) | 0.17 (≈ 0.355 µM) | 1 (≈ 2.09 µM)
17 | COC(=O)[C@@]1(O)C[C@H]2O[C@]1(C)n1c3ccccc3c3c4c(c5c6cccc(N)c6n2c5c31)C(=O)NC4 (relative stereo) [Compound 11] | – | 0.16 (≈ 0.332 µM) | 0.1 (≈ 0.207 µM) | 0.47 (≈ 0.974 µM)
18 | CC12OC(CC1(O)CN)n1c3ccccc3c3c4c(c5c6ccccc6n2c5c31)C(=O)N(N)C4=O (stereo not drawn) [Compound 71] | – | > 1 | > 1 | 1 (≈ 2.14 µM)
19 | COC(=O)C1(O)CC2OC1(C)n1c3ccccc3c3c4c(c5c6ccccc6n2c5c31)C(=O)N(CCN(C)C)C4=O (stereo not drawn) [Compound 69] | – | 0.68 (≈ 1.23 µM) | 0.88 (≈ 1.59 µM) | > 1
20 | CC12OC(CC1(O)CN1CCNCC1)n1c3ccccc3c3c4c(c5c6ccccc6n2c5c31)CNC4=O (stereo not drawn) [Compound 40] | – | > 1 | 0.38 (≈ 0.749 µM) | > 1
21 | CC12OC(CC1(O)CN1CCCCC1)n1c3ccccc3c3c4c(c5c6ccccc6n2c5c31)CNC4=O (stereo not drawn) [Compound 41] | – | 0.07 (≈ 0.138 µM) | 0.06 (≈ 0.118 µM) | > 1
22 | COC(=O)[C@@]1(O)C[C@H]2O[C@]1(C)n1c3ccccc3c3c4c(c5c6cc(N(C)C)ccc6n2c5c31)C(=O)NC4 (relative stereo) [Compound 12] | – | 0.11 (≈ 0.215 µM) | 0.17 (≈ 0.333 µM) | 0.36 (≈ 0.705 µM)
23 | CC12OC(CC1(O)C=NO)n1c3ccccc3c3c4c(c5c6ccccc6n2c5c31)CNC4=O (stereo not drawn) [Compound 50] | 0.013 | 0.17 (≈ 0.376 µM) | 0.22 (≈ 0.486 µM) | –
24 | C[C@]12O[C@H](C[C@]1(O)COC1CCCCO1)n1c3ccccc3c3c4c(c5c6ccccc6n2c5c31)CNC4=O (stereo partly drawn) [Compound 28] | – | 0.32 (≈ 0.611 µM) | 0.2 (≈ 0.382 µM) | 1 (≈ 1.91 µM)
25 | CN(C)CCN1C(=O)c2c(c3c4ccccc4n4c3c3c2c2ccccc2n3C2CC(O)(CO)C4(C)O2)C1=O (stereo not drawn) [Compound 70] | – | 0.41 (≈ 0.782 µM) | 0.5 (≈ 0.953 µM) | 0.45 (≈ 0.858 µM)
26 | COC(=O)CNC[C@@]1(O)C[C@H]2O[C@]1(C)n1c3ccccc3c3c4c(c5c6ccccc6n2c5c31)C(=O)NC4 (relative stereo) [Compound 31] | – | 0.31 (≈ 0.607 µM) | 0.08 (≈ 0.157 µM) | 0.8 (≈ 1.57 µM)
27 | CC12OC(CC1(O)CNC(=O)CN)n1c3ccccc3c3c4c(c5c6ccccc6n2c5c31)CNC4=O (stereo not drawn) [Compound 34] | – | 0.17 (≈ 0.343 µM) | 0.03 (≈ 0.0605 µM) | 0.24 (≈ 0.484 µM)
28 | CC12OC(CC1(O)CN1CCSCC1)n1c3ccccc3c3c4c(c5c6ccccc6n2c5c31)CNC4=O (stereo not drawn) [Compound 39] | – | 0.38 (≈ 0.724 µM) | 0.14 (≈ 0.267 µM) | > 1
